Here are results for two compounds from patent US20120064008A1, “COMPOSITIONS FOR THE TREATMENT OF METASTATIC CANCER AND METHODS OF USE THEREOF” (priority 2009, published 2012).

One test relates to DU-145TR cells. The test is described as follows: Gene expression profiling, DU-145 and DU-145TR. Type of test: cell-based, human. Conditions: DU-145TR vs DU-145, 2-fold cut off. The text has this: In order to dissect the mechanisms underlying the anti-tumor effects of benzimidazoles in these cells, gene expression profiling was done comparing albendazole treated DU-145 and DU-145TR cells.

The test system of another test is lung metastases. The experiment in a line: Lung metastasis model, survival. Type of test: in vivo, mice. On the procedure: In the lung metastasis model, treatment was initiated 10 days after the animals were inoculated with tumor cells. At this time, the lungs were riddled with metastases. Formulations containing a benzimidazole were injected into the peritoneum three times per week. Half of the control mice died by day 27, only 17 days after the animals started receiving treatments. In contrast, half of the mice treated with fenbendazole were still alive on day 37 and one-third were still alive at day 45.

Turning to `CCCSc1ccc2nc(NC(=O)OC)[nH]c2c1` [Albendazole, albendazole], in the test on DU-145TR cells, the “expression of ER stress signaling genes (ATF-2, ATF-3, HERPUD1, CHOP, ANKRD1, GADD45alpha)” value is given as “differentially expressed”.
Take `COC(=O)Nc1nc2ccc(Sc3ccccc3)cc2[nH]1` [Fenbendazole, fenbendazole]: in the test on lung metastases (i.p. three times per week from day 10 after inoculation), the “fraction of mice still alive at day 45” value was “one-third”. For the same compound, in the test on lung metastases (i.p. three times per week from day 10 after inoculation (half of control mice died by day 27)), the “day on which half of the mice were still alive” value worked out at 37 days. Further, the “prolonging the survival times compared with taxol” value in the test with lung metastases (mouse, in vivo) was “equivalent to taxol”.
